Measurements as given in ChEMBL document CHEMBL5725356, “Anti-fibrotic pyridinones” (2017).

Experiment: ET-1 Assay: Fibroblasts (primary human lung and dermal, HFL-1, 3T3 etc) are seeded in 96-well plates at ~15000 cells/well and serum starved for 0-48 hours. After media exchange, compounds serially diluted in DMSO are added to the cells. After a brief incubation of ~30 min, stimulants (TGFb, serum, LPA etc) are added followed by further incubation for 16-48 hours. Media is then harvested and stored frozen in plate format for later endothelin-1 (ET-1) determination by ELISA. Toxicity measurements are made using the ATPlite kit (Perkin-Elmer). ET-1 is quantified using an ELISA kit (R&D Systems). The amount of ET-1 produced in the assay wells are back-calculated using the ELISA standard. The ability of a compound to inhibit ET-1 production is typically analyzed by fitting dose-response curves to a 4-parameter logistic function to obtain an EC50 value.
Details: HFL1

SMILES	EC50
Cc1n[nH]c(C)c1-c1ccc(=O)n(-c2ccncc2)c1	> 200 µM
COc1ccc(-n2cc(C)ccc2=S)cc1	> 200 µM
Cc1cc(=O)n(-c2ccc(Cl)cc2)cc1-c1cn[nH]c1	> 200 µM
Cc1cc(=O)n(-c2ccc(OC(F)(F)F)cc2)cc1-c1ccc2c(c1)OCC(=O)N2	in the range around 125 µM
CCOc1ccc(-n2cc(-c3cnn(C)c3)c(Oc3ccccc3)cc2=O)c(C)c1	< 50 µM
Cn1cc(-c2cnc(=O)n(-c3ccccc3)c2)cn1	> 200 µM
Cn1cc(-c2cn(-c3ccc(OC(F)(F)F)cc3)c(=O)cc2NCc2ccc(Cl)cc2Cl)cn1	< 50 µM
Cc1cc(=O)n(-c2ccc(Cl)cc2)cc1-c1ccc2scnc2c1	in the range around 125 µM
O=c1ccc(-c2cn[nH]c2)cn1-c1ccc(F)cc1	in the range around 125 µM
Cc1cc(=O)n(-c2ccc(OC(F)(F)F)cc2)cc1-c1ccc2c(c1)OCC(=O)N2C	< 50 µM
Cn1cc(-c2ccc(=O)n(-c3ccccc3)n2)cn1	> 200 µM
Cc1ccc(=S)n(-c2ccc(OC(C)C)cc2)c1	> 200 µM
Cc1cc(=O)n(-c2ccc(OC(F)(F)F)cc2)cc1C(F)(F)F	> 200 µM
Cc1cc(=O)n(-c2ccc(OC(F)(F)F)cc2)cc1-c1cccc2c1OCC(=O)N2	> 200 µM
Cc1cc(=O)n(-c2ccc(Cl)cc2)cc1-c1ccc2ocnc2c1	> 200 µM
CCOc1ccc(-n2cc(-c3cccc(Cl)c3)ccc2=O)c(C)c1	< 50 µM
Cc1n[nH]c(C)c1-c1ccc(=O)n(-c2ccc(OC(C)C)cc2)c1	in the range around 125 µM
O=c1ccc(-c2cccc(Cl)c2)cn1-c1ccccc1F	in the range around 125 µM
CCOc1ccc(-n2cc(-c3ccc4ocnc4c3)c(C)cc2=O)c(C)c1	in the range around 125 µM
O=c1ccc(-c2cnn(Cc3ccccc3)c2)cn1-c1ccccc1	in the range around 125 µM
Cc1cc(=O)n(-c2ccccc2)cc1C	> 200 µM
Cc1cc(=O)n(-c2ccc(Cl)cc2)cc1-c1ccnnc1	> 200 µM

SMILES	EC50
O=c1ccc(-c2cn[nH]c2)cn1-c1cccc(C(F)(F)F)c1	> 200 µM
Cn1cc(-c2cn(-c3ccc(OC(F)(F)F)cc3)c(=O)cc2Oc2ccc(Cl)cc2)cn1	> 200 µM
Cn1cc(-c2cn(-c3ccc(Cl)cc3)c(=O)c3nccnc23)cn1	> 200 µM
O=c1ncc(-c2ccc(F)cc2)cn1-c1ccc(OC(F)(F)F)cc1	> 200 µM
O=c1c2c(ccn2Cc2ccccc2)c(-c2ccc(F)cc2)cn1-c1ccc(OC(F)(F)F)cc1	> 200 µM
Cc1n[nH]c(C)c1-c1ccc(=O)n(-c2cccc(C(F)(F)F)c2)c1	in the range around 125 µM
N#Cc1cc(=O)n(-c2ccc(OC(F)(F)F)cc2)cc1-c1ccc(F)cc1	> 200 µM
Cc1cc(=O)n(-c2ccc(OC(F)(F)F)cc2)cc1-c1ccc2[nH]c(=O)oc2c1	> 200 µM
COc1ccc(-n2cc(-c3cn[nH]c3)ccc2=O)cc1	> 200 µM
COc1cccc(-n2cc(-c3cn[nH]c3)ccc2=O)c1	> 200 µM
Cn1cc(-c2cn(-c3ccc(C#N)cc3)c(=O)c3cccnc23)cn1	in the range around 125 µM
Cc1cc(=O)n(-c2ccc(OC(F)(F)F)cc2C)cc1-c1cnn(C)c1	> 200 µM
Cc1n[nH]c(C)c1-c1ccc(=O)n(-c2cccc(F)c2)c1	> 200 µM
Cn1cc(-c2cn(-c3ccc(OC(F)(F)F)cc3)c(=O)cc2NCc2cnccn2)cn1	in the range around 125 µM
CCOc1ccc(-n2cc(-c3cn[nH]c3)ccc2=O)c(C)c1	< 50 µM
Cc1cc(=O)n(-c2ccc(OC(F)(F)F)cc2)cc1-c1cccc2c1NC(=O)CO2	> 200 µM
Cn1cc(-c2cn(-c3ccc(OC(F)(F)F)cc3)c(=O)cc2Oc2ccccc2Cl)cn1	< 50 µM
Cn1cc(-c2cn(-c3ccc(OC(F)(F)F)cc3)c(=O)cc2NCc2ccc(F)cc2F)cn1	< 50 µM
O=c1ccc(-c2ccc(F)cc2)nn1-c1ccc(OC(F)(F)F)cc1	> 200 µM
O=c1ncc(-c2ccc(F)cc2)cn1-c1ccccc1	in the range around 125 µM
Cn1cc(-c2ccc(=O)n(-c3ccc(OC(F)(F)F)cc3)n2)cn1	> 200 µM
Cc1ccc(=S)n(-c2ccc(F)cc2)c1	> 200 µM

SMILES	EC50
Cc1cc(=O)n(-c2ccc(OC(F)(F)F)cc2)cc1-c1cccc2c1N(C)C(=O)CO2	> 200 µM
O=c1ccc(-c2cccc(Cl)c2)cn1-c1ccncc1	> 200 µM
CCOC(=O)Nc1cccc(-n2cc(-c3ccc(F)cc3)c(C)cc2=O)c1	< 50 µM
O=c1ccc(-c2cncnc2)cn1-c1ccccc1F	> 200 µM
O=c1ccc(-c2cccc(Cl)c2)cn1-c1cccc(F)c1	< 50 µM
Cc1ccc(F)c(-c2ccccc2)c1	> 200 µM
Cc1cc(-c2ccc(F)cc2)cn(-c2ccc(OC(F)(F)F)cc2)c1=O	in the range around 125 µM
Cc1cc(-c2cnn(C)c2)cn(-c2ccc(OC(F)(F)F)cc2)c1=O	in the range around 125 µM
CCn1c(=O)oc2cc(-c3cn(-c4ccc(OC(F)(F)F)cc4)c(=O)cc3C)ccc21	< 50 µM
Cn1cc(-c2cn(-c3ccc(OC(F)(F)F)cc3)c(=O)c3c2ccn3C)cn1	< 50 µM
Cc1n[nH]c(C)c1-c1ccc(=O)n(-c2ccc(OC(F)(F)F)cc2)c1	in the range around 125 µM
Cn1cc(-c2cn(-c3ccc(OC(F)(F)F)cc3)c(=O)cc2NCc2ccc(C#N)cc2)cn1	> 200 µM
CN1C(=O)COc2c(-c3cnn(C)c3)cn(-c3ccc(OC(F)(F)F)cc3)c(=O)c21	> 200 µM
Cn1cc(-c2cn(-c3ccc(C#N)cc3)c(=O)c3nccnc23)cn1	> 200 µM
COc1ccc(-n2cc(-c3ccc(S(N)(=O)=O)cc3)ccc2=O)cc1	> 200 µM
Cn1cc(-c2cn(-c3ccc(OC(F)(F)F)cc3)c(=O)cc2Oc2ccccc2F)cn1	> 200 µM
Cc1cc(-c2ccc(F)cc2)cn(-c2ccccc2)c1=O	< 50 µM
CC(C)n1cc(-c2ccc(=O)n(-c3ccccc3)c2)cn1	> 200 µM
O=c1ccc(-c2cncnc2)cn1-c1cccc(F)c1	> 200 µM
Cc1ccc(=O)n(-c2ccc(OC(F)(F)F)cc2)n1	< 50 µM
O=c1ccc(-c2cccc(Cl)c2)cn1-c1ccccc1Cl	< 50 µM
Cc1cc(=O)n(-c2ccc(OC(F)(F)F)cc2)cc1-c1cccc2c1OC(F)(F)O2	< 50 µM

SMILES	EC50
Cc1n[nH]c(C)c1-c1ccc(=O)n(-c2ccc(F)cc2)c1	> 200 µM
Cn1cc(-c2cn(-c3ccc(OC(F)(F)F)cc3)c(=O)cc2NCc2ccc(F)cc2)cn1	< 50 µM
Cn1cc(-c2cnc(=O)n(-c3ccc(OC(F)(F)F)cc3)c2)cn1	> 200 µM
COc1cccc(-n2cc(-c3cccc(Cl)c3)ccc2=O)c1	< 50 µM
O=c1ccc(-c2cncnc2)cn1-c1ccc(F)cc1	> 200 µM
NS(=O)(=O)c1ccc(-c2ccc(=O)n(-c3ccc(Cl)cc3)c2)cc1	> 200 µM
O=c1ccc(-c2cn[nH]c2)cn1-c1cccc(F)c1	> 200 µM
O=c1ccc(-c2cn[nH]c2)cn1-c1ccc(Cl)cc1	> 200 µM
O=c1ccc(-c2cccc(Cl)c2)cn1-c1cccc(C(F)(F)F)c1	< 50 µM
COc1cccc(-n2cc(-c3c(C)n[nH]c3C)ccc2=O)c1	in the range around 125 µM
Cc1cc(=O)n(-c2ccc(OC(F)(F)F)cc2)cc1C	> 200 µM
Cc1cc(=O)n(-c2ccc(NC(N)=O)cc2)cc1-c1ccc(F)cc1	in the range around 125 µM
COc1cccc(-n2cc(-c3ccc(S(N)(=O)=O)cc3)ccc2=O)c1	> 200 µM
Cc1cc(=O)n(-c2cccc(NC(=O)N(C)C)c2)cc1-c1ccc(F)cc1	< 50 µM
O=C1NC=CCN1c1ccccc1	> 200 µM
Cn1cc(-c2cn(-c3ccc(OC(F)(F)F)cc3)c(=O)cc2Oc2ccc(F)cc2)cn1	< 50 µM
O=c1ccc(-c2cn[nH]c2)cn1-c1ccc(OC(F)(F)F)cc1	< 50 µM
Cn1cc(-c2cn(-c3ccc(OC(F)(F)F)cc3)c(=O)cc2Oc2cccc(Cl)c2)cn1	< 50 µM
O=c1c2nccnc2c(-c2cn[nH]c2)cn1-c1ccc(OC(F)(F)F)cc1	< 50 µM
Cn1cc(-c2cn(-c3ccc(OC(F)(F)F)cc3)c(=O)cc2Oc2cccc(F)c2)cn1	< 50 µM
Cc1ccc(=S)n(-c2cccc(F)c2)c1	> 200 µM
Cc1cc(-c2cnn(C)c2)cn(-c2ccccc2)c1=O	in the range around 125 µM

SMILES	EC50
Cn1cc(-c2cn(-c3ccc(OC(F)(F)F)cc3)c(=O)cc2NCc2ccc(Cl)cc2)cn1	in the range around 125 µM
NS(=O)(=O)c1ccc(-c2ccc(=O)n(-c3cccc(C(F)(F)F)c3)c2)cc1	> 200 µM
CNC(=O)Nc1cccc(-n2cc(-c3ccc(F)cc3)c(C)cc2=O)c1	in the range around 125 µM
Cc1cc(C)c(=O)n(-c2ccccc2)c1	> 200 µM
Cn1cc(-c2cn(-c3ccc(OC(F)(F)F)cc3)c(=O)c3c2OCC(=O)N3)cn1	> 200 µM
Cn1cc(-c2cn(-c3ccc(OC(F)(F)F)cc3)c(=O)cc2C#N)cn1	< 50 µM
CC(C)Oc1ccc(-n2cc(-c3ccc(S(N)(=O)=O)cc3)ccc2=O)cc1	> 200 µM
Cc1n[nH]c(C)c1-c1ccc(=O)n(-c2ccc(Cl)cc2)c1	> 200 µM
Cc1ccc(=S)n(-c2ccc(OC(F)(F)F)cc2)c1	in the range around 125 µM
CCOc1ccc(-n2cc(-c3ccc(F)cc3)ccc2=O)c(C)c1	> 200 µM
O=c1c2nccnc2c(-c2cn[nH]c2)cn1-c1ccc(Cl)cc1	> 200 µM
Cc1ccc(=O)n(-c2ccccc2)n1	> 200 µM
O=c1ccc(-c2ccnnc2)cn1-c1ccc(OC(F)(F)F)cc1	in the range around 125 µM
CCOc1ccc(-n2cc(-c3c(C)n[nH]c3C)ccc2=O)c(C)c1	in the range around 125 µM
O=c1cc2ccccc2cn1-c1ccccc1	in the range around 125 µM
CC(C)Oc1ccc(-n2cc(-c3cn[nH]c3)ccc2=O)cc1	in the range around 125 µM
Cc1ccccc1-n1cc(-c2cnn(C)c2)ccc1=O	> 200 µM
Cc1c(-c2ccc(=O)n(-c3ccc(OC(F)(F)F)cc3)c2)cnn1C	< 50 µM
